Experimental data published in patent US20160264935A1, “TRANSFORMED HUMAN PLURIPOTENT STEM CELLS AND ASSOCIATED METHODS” (McMaster University, priority 2009, published 2016).
Counter-ions that a name gives are not always drawn.

Key:
[1] = test system: transformed pluripotent stem cells with EOS Oct4-GFP reporter; assay: High throughput plate reader screen for loss of pluripotency (Oct4-Alexa 647 antibody and GFP); type: cell-based, human; conditions: 1, 10, 100 ng/mL BMP4 for 4 days, n=3
Description: Transformed pluripotent stem cells were passaged as single cells using Trypsin and seeded at 1000 cells per well into 96 well optical imaging plates coated with Matrigel ® containing 100 ul mouse embryonic fibroblast conditioned media (MEF-CM). Plates were incubated at 37 degrees for 24 Hr before treatment with bone morphogenic protein 4 (BMP4) commenced. Cells were treated with either 1 ng/mL, 10 ng/mL, 100 ng/mL, or 0 ng/mL BMP4 for 4 days (n=3). After 4 days cells were fixed with 2% paraformaldehyde and stained with Oct4-Alexa 647 antibody. Cells were loaded into a plate reader and measured at excitation emission pairs of 650/665 and 488/520 nm to measure Oct4-Alexa 647 antibody (top graph) and GFP (bottom graph) respectively. Pluripotency (measured by the loss of OCT4 and GFP expression) decreased with the increase in differentiation inducing compound BMP4. Similar results were obtained when other compounds were tested. […]
The versatility of transformed human pluripotent stem cells is illustrated by the multiple types of assays that it enables. […] Cells were loaded into a plate reader and measured at excitation emission pairs of 650/665 and 488/520 nm to measure Oct4-Alexa 647 antibody (FIG. 7 top graph) and GFP (FIG. 7 bottom graph) respectively. Pluripotency (measured by the loss of OCT4 and GFP expression) decreased with the increase in differentiation inducing compound BMP4. […]

[2] = test system: transformed stem cells (Oct4-GFP); assay: High Content Screening of Oct4-GFP expression (ArrayScan HCS reader); type: cell-based, human
Description: At day 2 and 3 BMP4 was added to each of the treated wells at various concentrations. On day 4 microtiter plates containing treated transformed stem cells were imaged using the cellomics ArrayScan HCS reader (Thermofisher). Oct4-GFP expression was shown in green while cell nuclei are shown in blue (Hoescht 33342). A) No BMP untreated control.
Cells were grown as described in FIG. 9 with the exception of the addition of BMP4 which was replaced by DMSO at multiple concentrations as described in the Figure legends. DMSO is a chemical compound used in drug studies as a solvent which is known to induce stem cell differentiation. On day 5, after cell seeding and culture, microtiter plates were imaged using the ArrayScan HCS reader (Thermofisher). […] D) Cell numbers were quantified based on the automated detection and segregation of cells labelled by the nuclear dye Hoescht. […] All images were analyzed using the Cellomics software.
Transformed stem cells were seeded as single cells and grown in culture using standard stem cell culture conditions for 4 days. […] On day 4 microtiter plates containing treated transformed stem cells were imaged using the cellomics ArrayScan HCS reader (Thermofisher). […]
Due to image analysis limitations similar data could not be obtained when normal cells were used for the assays. […] All images were analyzed using the Cellomics software.

[3] = test system: transformed pluripotent stem cells that contain an Oct4-GFP reporter; assay: Microscope imaging of Oct4 antibody staining and GFP after BMP-4 treatment; type: cell-based, human; conditions: increased amounts of BMP-4, 4 days; microscope images
Description: Transformed pluripotent stem cells that contain an Oct4-GFP reporter were plated, cultured, treated with BMP-4 and fixed as described in FIG. 7. Cells were permeabilized with 0.1% TritonX-100 and stained with Oct4 antibody conjugated with Alexa 647. The cell nuclei were stained with Hoechst 33342. Images were collected using 10× objective on Olympus microscope, and analysed using Image-Pro Plus software.
Cells were permeabilized with 0.1% TritonX-100 and stained with Oct4 antibody conjugated with Alexa 647. The cell nuclei were stained with Hoechst 33342. Images were collected using 10× objective on Olympus microscope, and analysed using Image-Pro Plus software.

[4] = test system: t-hPSCs that contain an Oct4-GFP reporter gene; assay: Screen of 300 compounds for inducers of stem cell differentiation (Oct4-GFP/Hoechst ratio); type: cell-based, human; conditions: 72 hours after exposure; fluorescence plate reader
Text: FIG. A: identification of inducers of stem cell differentiation. 300 compounds were screened to detect the fluorescence emitted from the Oct4-GFP reporter expressed in transformed cells and normalized to the relative cell nuclear number as defined by Hoechst staining. GFP/Hoechst ratios below zero, the threshold defined by BMP4 (a known stem cell differentiator), are considered potent inducers of stem cells differentiation. FIGS. B-C: the frequency of Oct4+ human iPS cells measured using flow cytometry following 7 days of treatment with Mefloquine (MEFLO) or thioridazine (THIO) compared to culture media (MEFCM) and culture media supplemented with DMSO (DMSO). […] FIGS. 1D-E: Measurements of cell viability using trypan blue on human mobilized peripheral blood treated with mefloquine or thioridazine for 5 days. […]
Plates containing the cells were analyzed 72 hours after exposure to the compounds using a fluorescence plate reader capable of detecting the fluorescence emitted from the Oct4-GFP reporter expressed in transformed cells and normalized to the relative cell nuclear number as defined by Hoechst staining. […]

human iPS cells = assay: Frequency of Oct4+ cells by flow cytometry; type: cell-based; conditions: 7 days of treatment; compared to MEFCM and DMSO
Text: FIG. A: identification of inducers of stem cell differentiation. 300 compounds were screened to detect the fluorescence emitted from the Oct4-GFP reporter expressed in transformed cells and normalized to the relative cell nuclear number as defined by Hoechst staining. GFP/Hoechst ratios below zero, the threshold defined by BMP4 (a known stem cell differentiator), are considered potent inducers of stem cells differentiation. FIGS. B-C: the frequency of Oct4+ human iPS cells measured using flow cytometry following 7 days of treatment with Mefloquine (MEFLO) or thioridazine (THIO) compared to culture media (MEFCM) and culture media supplemented with DMSO (DMSO). […] FIGS. 1D-E: Measurements of cell viability using trypan blue on human mobilized peripheral blood treated with mefloquine or thioridazine for 5 days. […] Mefloquine (MEFLO) and thioridazine (THIO) were then tested in human iPS cells. Following 7 days of treatment, the frequency of Oct4+ cells were measured using flow cytometry and compared to culture media (MEFCM) and culture media supplemented with DMSO (DMSO) as a vehicle to augment compound solubility.

[5] = test system: human mobilized peripheral blood; assay: Cell viability by trypan blue exclusion; type: cell-based; conditions: 0.1-10 μM, 5 days
Description: FIGS. 1D-E: Measurements of cell viability using trypan blue on human mobilized peripheral blood treated with mefloquine or thioridazine for 5 days. […] In order to further investigate the compounds identified by the screen, mefloquine and thioridazine were used to treat human mobilized peripheral blood for 5 days. Cell viability was measured using trypan blue exclusion.

| Compound | Induction of t-hPSC differentiation (GFP/Hoechst ratio below zero, the threshold defined by BMP4) [4] | Frequency of Oct4+ cells (human iPS cells) | Cell viability relative to control samples (0 μM) [5] | further results |
| --- | --- | --- | --- | --- |
| bone morphogenic protein 4 [BMP4] |  |  |  | Pluripotency (measured by the loss of OCT4 and GFP expression) [1]: decreased; Oct4-GFP expression ([2]; BMP4 added at day 2 and 3, imaged day 4): significant loss of GFP expression; GFP fluorescence (Oct4-GFP reporter) [3]: decreased GFP fluorescence; Oct-4 antibody staining [3]: decreased Oct-4 antibody staining |
| CSc1ccc2c(c1)N(CCC1CCCCN1C)c1ccccc1S2 (centres unmarked) [Thioridazine HCl] | potent inducers of t-hPSCs differentiation | decrease | did not reduce cell viability |  |
| OC(c1cc(C(F)(F)F)nc2c(C(F)(F)F)cccc12)C1CCCCN1 (centres unmarked) [Mefloquine HCl] | potent inducers of t-hPSCs differentiation | decrease | did not reduce cell viability |  |
| C[S+](C)[O-] [DMSO] |  |  |  | Oct4-GFP expression ([2]; DMSO 0%, 0.01%, 2% (v/v) for 4 consecutive days, imaged day 5): decreasing expression levels of GFP |
